Reference: patent US20140256639A1, “PEPTOID NEUTRALIZING AGENTS” (The Regents of the University of California, priority 2013, published 2014)

Experiments:
proteases = details: physiological conditions; cited from earlier work
heparin activity = details: Rabenstein and Wang 2006; cited from earlier work
[1] = Heparin affinity chromatography (HAC), NaCl gradient elution; type: binding; details: pH 7.2, 50 mM sodium phosphate, gradient 0 to 1 M NaCl over 60 min, 0.65 mL/min
Description: The relative affinities of the peptoids in Table 2 for heparin were determined by heparin affinity chromatography (“HAC”). Peptoid solutions, typically 0.2 mM, were eluted by gradient elution; mobile phase A consisted of pH 7.2, 50 mM sodium phosphate buffer and mobile phase B consisted of the same buffer but with 1 M NaCl added. The flow rate was 0.65 mL/min and the gradient began with 100% mobile phase A and 0% mobile phase B, and ended at 60 min with 0% mobile phase A and 100% B although most of the peptoid runs were complete within 30 min or less.

| Substance | stability / degradation by proteases (proteases) | other results |
| --- | --- | --- |
| Ac-SRGKAKVKAKVKDQTK-NH2 [D-HIPAP] | more stable than L-HIPAP |  |
| Ac-SRGKAKVKAKVKDQTK-NH2 (not fully specified; printed as Ac-SRGKAKVKAKVKDQTK-NH2) [L-HIPAP] |  | neutralizing heparin activity (heparin activity): equally effective |
| H-[N(Orn)-N(All)-N(Spe)]3-NH2 [s9merAll] |  | HAC r.t. [1]: 20 ± 2.0 min |
| Ac-SRGKAKVKAKVKDQTK-NH2 [L-HIPAP] | more susceptible to degradation by proteases |  |
